Source: the NIST ThermoML archive (doi:10.1016/j.jct.2013.05.051)

Experiment: xn = mol fraction of the nth substance listed
Settings: Liquid, Vibrating tube method

CCCCCCCO [heptan-1-ol] + CCCCCCC
mass density [kg/m3]
Settings | x1 = 0.1493 | x1 = 0.3215 | x1 = 0.5226 | x1 = 0.6698 | x1 = 0.8469 | x1 = 1
333.15 K, 140000 kPa | – | 779.8 | 804.5 | 823.2 | 851.4 | 864.3
353.15 K, 100 kPa | 654.4 | 676.1 | 705.8 | 728.5 | 762.3 | 778.1
353.15 K, 1000 kPa | 655.7 | 677.3 | 706.8 | 729.4 | 763.1 | 778.8
353.15 K, 5000 kPa | 661.2 | 682.2 | 711.3 | 733.6 | 766.7 | 782.3
353.15 K, 10000 kPa | 667.4 | 687.9 | 716.4 | 738.3 | 771 | 786.3
353.15 K, 15000 kPa | 673.1 | 693.2 | 721.3 | 742.9 | 775.2 | 790.2
353.15 K, 20000 kPa | 678.4 | 698.2 | 725.8 | 747.1 | 779 | 793.9
353.15 K, 25000 kPa | 683.2 | 702.8 | 730.1 | 751.1 | 782.7 | 797.3
353.15 K, 30000 kPa | 687.9 | 707.1 | 734.2 | 755 | 786.3 | 800.7
353.15 K, 35000 kPa | 692.2 | 711.1 | 738 | 758.6 | 789.6 | 804
353.15 K, 40000 kPa | 696.2 | 715 | 741.6 | 762 | 792.8 | 807.1
353.15 K, 45000 kPa | 700.2 | 718.7 | 745.1 | 765.4 | 795.9 | 810
353.15 K, 50000 kPa | 704 | 722.4 | 748.5 | 768.7 | 799 | 813
353.15 K, 55000 kPa | 707.5 | 725.7 | 751.7 | 771.8 | 801.9 | 815.8
353.15 K, 60000 kPa | 711 | 729 | 754.9 | 774.8 | 804.7 | 818.6
353.15 K, 65000 kPa | 714.3 | 732.2 | 757.9 | 777.7 | 807.5 | 821.2
353.15 K, 70000 kPa | 717.5 | 735.2 | 760.9 | 780.5 | 810.2 | 823.8
353.15 K, 80000 kPa | 723.5 | 741 | 766.4 | 785.9 | 815.2 | 828.7
353.15 K, 90000 kPa | 729.1 | 746.5 | 771.7 | 791.1 | 820.1 | 833.5
353.15 K, 100000 kPa | 734.4 | 751.6 | 776.7 | 795.9 | 824.8 | 837.9
353.15 K, 110000 kPa | 739.6 | 756.6 | 781.5 | 800.6 | 829.3 | 842.3
353.15 K, 120000 kPa | 744.3 | 761.2 | 786 | 804.9 | 833.4 | 846.4
353.15 K, 130000 kPa | 748.8 | 765.6 | 790.2 | 809 | 837.5 | 850.3
353.15 K, 140000 kPa | 753.2 | 769.9 | 794.6 | 813.2 | 841.4 | 854.3
373.15 K, 100 kPa | – | – | – | – | – | 761.9
373.15 K, 1000 kPa | 636.8 | 658.8 | 688.9 | 712.2 | 746.6 | 762.8
373.15 K, 5000 kPa | 643.2 | 664.6 | 694.1 | 716.9 | 750.7 | 766.6
373.15 K, 10000 kPa | 650.5 | 671.2 | 700 | 722.4 | 755.5 | 771.1
373.15 K, 15000 kPa | 656.9 | 677.2 | 705.5 | 727.5 | 760.2 | 775.5
373.15 K, 20000 kPa | 662.9 | 682.7 | 710.6 | 732.2 | 764.4 | 779.5
373.15 K, 25000 kPa | 668.4 | 687.9 | 715.4 | 736.7 | 768.6 | 783.4
373.15 K, 30000 kPa | 673.6 | 692.7 | 719.9 | 740.9 | 772.4 | 787.1
373.15 K, 35000 kPa | 678.4 | 697.2 | 724.1 | 744.9 | 776 | 790.6
373.15 K, 40000 kPa | 682.8 | 701.4 | 728.1 | 748.7 | 779.7 | 794
373.15 K, 45000 kPa | 687.2 | 705.6 | 732 | 752.4 | 783 | 797.2
